The values that follow are results of earlier work, collected in US10450317B2, “Notch pathway signaling inhibitor compounds” (Eli Lilly and Company, priority 2015, dated 2019).

The conditions of series [1]: systemic administration; cited from earlier work.
For another series, the system named is auditory hair cells. The conditions noted are these: middle ear delivery, mice with acoustic trauma; cited from earlier work.

With `C[C@H](NC(=O)[C@@H](O)c1cc(F)cc(F)c1)C(=O)N[C@@H]1C(=O)N(C)c2ccccc2-c2ccccc21` [LY411575], in series [1], the toxicity result is “Dose limiting toxicity was shown”. In addition, the “hearing recovery by regeneration of auditory hair cells” value with auditory hair cells is “significant, measurable, hearing recovery”.
